Among the data in PubChem BioAssay (NCI) are GI50 and TGI values, retold here.

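These data come from cells grown in 96-well plates and exposed to compound for 48 hours at five concentrations. GI50 is the concentration that inhibits growth by half. TGI marks complete inhibition of growth.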

Common to all, as to experiment: NCI-60 cell line screen, 48 h
Test [1] has as its system CCRF-CEM leukemia.
Test [2] relates to HCT-15 colon.
Test [3] deals with M14 melanoma.
Test [4] has as its system NCI-H460 lung.
For test [5], the system named is SF-268 CNS.
In test [6] the test system is SF-295 CNS.
Test [7] concerns SR leukemia.
The subject of test [8] is EKVX NSCLC.
In test [9] the test system is SF-539 CNS.
In test [10] the test system is SN12C renal.

With `O=C(/C(=C/c1ccc([N+](=O)[O-])cc1)c1ccccc1)c1ccccc1`, the GI50 in [1] was 2.25 µM; in test [2], 2.85 µM; in [3], 3.08 µM; in test [4], 2.34 µM; in test [5], 3.55 µM; in [6] it was 3.56 µM. In test [7], the GI50 was 2.79 µM. The TGI in [1] is > 100 µM; in test [2], > 100 µM; in [3], > 100 µM; in test [4] it was 5.93 µM; in [5], > 100 µM; in test [6], > 100 µM. Besides, in test [7], the TGI is > 100 µM.

With `Cc1cc2c3ccc(C)[n+](C)c3ccc2n1C`, the GI50 in [8] is 0.456 µM; in test [2], > 100 µM; in [3] it was 17.2 µM; in [4] it was 3.9 µM; in test [5] it was 2.99 µM; in test [6] it was 2.34 µM. The figures for the GI50 in test [9], in [10] and in [7] were 3.89 µM, 2.69 µM and 4.24 µM, respectively. The TGI in test [8] was 13.6 µM; in [2] it was > 100 µM; in test [3], > 100 µM; in test [4], 28.8 µM; in test [5] it was 15.9 µM; in test [6], 15.6 µM. The figures for the TGI in [9], in test [10] and in [7] were 21.3 µM, 15.9 µM and > 100 µM, respectively.

As to `C/C(=N\Nc1ccc2ccccc2n1)c1ccccn1`, the TGI in test [1] is 0.0284 µM; in [2] it was 5.72 µM; in test [3], 1.33 µM; in test [4], 3.71 µM; in test [5], 10.8 µM; in test [6], 0.636 µM. For the same compound, the figures for the TGI in [9], in test [10] and in test [7] were 0.487 µM, 14.9 µM and 2.38 µM, respectively. In addition, the GI50 in [3] was 0.0504 µM; in test [4], < 0.0507 µM; in test [5], 0.0489 µM; in test [9], 0.0768 µM; in [10] it was 0.0914 µM; in test [7], < 0.0335 µM.

`O=C1C(=O)N(c2ccc(Cl)c(Cl)c2)C(=O)C(=O)C1c1nc2ccccc2s1`: the TGI in test [1], in test [8], in [2], in test [3], in [5] and in test [6] was > 100 µM each time. The TGI in test [9], in test [10] and in test [7] was > 100 µM in each case.

As to `N/C(=N\N=C\c1ccc(-c2ccccc2)cc1)N[N+](=O)[O-]`, the GI50 in test [1] was 3.1 µM; in test [2], 2.03 µM; in [3], 1.65 µM; in [4] it was 2.98 µM; in test [5] it was 7.07 µM; in test [6], 2.61 µM. Besides, the GI50 in test [9] was 2.12 µM; in test [10] it was 7.3 µM; in test [7] it was 0.692 µM. Further, the TGI in test [1], in test [2], in test [3], in test [4], in test [5] and in [6] was > 100 µM each time. Also, the TGI in [9], in [10] and in test [7] was > 100 µM in each case.

Turning to `COc1ccc(N=c2ssc3c(=S)ssc23)cc1`, the TGI was 28.2 µM in test [1]; 52.5 µM in test [2]; 48.6 µM in test [3]; > 100 µM in test [5]; > 100 µM in test [6]; 96.2 µM in test [9]. For the same compound, the TGI in test [10] is > 100 µM; in test [7] it was 20.1 µM.

Consider `Cc1ccc(-c2cc(-c3ccc(C)cc3)nc(NCCNc3ccnc4cc(Cl)ccc34)n2)cc1`, for which the GI50 in test [8] is 1.69 µM; in test [2] it was 1.55 µM; in [3] it was 1.78 µM; in test [4], 1.91 µM; in test [5] it was 1.72 µM; in [6], 1.8 µM. Moreover, the GI50 in test [9] is 1.91 µM; in test [10] it was 1.63 µM; in test [7], 0.623 µM. For the same compound, the TGI in test [8] stood at 3.52 µM; in [2], 3.16 µM; in test [3], 3.65 µM; in [4], 3.7 µM; in test [5] it was 3.54 µM; in test [6], 3.49 µM. Besides, the TGI in [9] was 3.6 µM; in test [10], 3.29 µM; in test [7] it was > 100 µM.

`CC(CN1CCN(CCOCCO)CC1)CN1c2ccccc2Sc2ccc(Cl)cc21` (centres undefined): the GI50 in test [1] was 2.68 µM; in [2], 1.85 µM; in [3] it was 1.85 µM; in [4] it was 2.36 µM; in test [5], 4.87 µM; in test [9], 2.52 µM. Also, the GI50 is 3.86 µM in test [10] and 3.58 µM in test [7]. Moreover, the TGI came to 8.74 µM in test [1]; 3.76 µM in test [2]; 3.46 µM in [3]; 5.35 µM in test [4]; 18.4 µM in [5]; 6.94 µM in test [9]. The TGI in [10] turned out to be 17.1 µM; in test [7], 16.5 µM.

For the compound `COc1cc2c(cc1OC(=O)CC(C)O)C1C(OC2=O)C(OC(C)=O)C=C2CCN(C)[C@H]21` (some centres undefined), the TGI in test [1] is > 100 µM; in [8] it was > 100 µM; in [3] it was > 100 µM; in [4] it was > 100 µM; in [5], > 100 µM; in [6] it was 49.9 µM. Besides, the values for the TGI in test [9], in [10] and in test [7] were 52.8 µM, > 100 µM and > 100 µM, respectively.

On to `c1ccc2c(C3NCCc4[nH]cnc43)cccc2c1` (centres undefined), for which the TGI in test [1], in test [2], in [3], in [4], in test [5] and in [6] was > 100 µM in each case. The TGI in test [9], in test [10] and in test [7] was > 100 µM in each case.
